Laboratory results reported in patent publication US8906852B2 (MethylGene Inc., priority 2010, dated 2014).
pIC50: −log10 of the molar value.

Each compound was assayed against T1, VEGFR/KDR (Homo sapiens, UniProt P35968) (assay: VEGFR/KDR kinase inhibition, DELFIA assay). Conditions: ATP 0.6 uM (2x Km), enzyme 5 nM.
T1 construct: made in house; host or cells: Sf9 cells (Spodoptera frugiperda), baculovirus
Assay type: biochemical
How it was run: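 DELFIA time-resolved fluorescence readout using Europium-tagged anti-phosphotyrosine antibody after EDTA stop. Kinase reaction on plate-bound poly(Glu4,Tyr) ran 10-30 min at 30° C with 5 nM enzyme and 0.6 uM ATP (2× Km), following 4 min on-ice pre-incubation with compound; IC50 over a concentration range.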

T1 sequence (P35968 806-1356): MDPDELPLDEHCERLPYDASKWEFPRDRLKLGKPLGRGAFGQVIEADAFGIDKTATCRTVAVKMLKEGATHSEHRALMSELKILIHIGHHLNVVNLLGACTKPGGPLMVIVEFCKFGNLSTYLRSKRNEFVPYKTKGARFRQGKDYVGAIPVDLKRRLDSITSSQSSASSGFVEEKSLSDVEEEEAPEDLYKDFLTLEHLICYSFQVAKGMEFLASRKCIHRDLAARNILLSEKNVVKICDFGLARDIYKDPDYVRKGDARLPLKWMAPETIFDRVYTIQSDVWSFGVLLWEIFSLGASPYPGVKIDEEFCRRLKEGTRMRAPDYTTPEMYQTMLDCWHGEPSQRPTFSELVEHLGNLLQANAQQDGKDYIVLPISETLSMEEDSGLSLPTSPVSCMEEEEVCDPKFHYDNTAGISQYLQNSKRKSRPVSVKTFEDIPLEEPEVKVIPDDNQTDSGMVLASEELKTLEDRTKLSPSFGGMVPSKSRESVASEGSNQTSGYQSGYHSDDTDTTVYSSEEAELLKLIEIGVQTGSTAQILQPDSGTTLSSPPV

pIC50, > 7.30:
C[C@H]1CN(Cc2ccc(-c3cc4nccc(Oc5ccc(NC(=O)NC6CC6)cc5F)c4s3)nc2)CCN1C(=O)CO [Compound 529, (S)-1-cyclopropyl-3-(3-fluoro-4-(2-(5-((4-(2-hydroxyacetyl)-3-methylpiperazin-1-yl)methyl)pyridin-2-yl)thieno[3,2-b]pyridin-7-yloxy)phenyl)urea]
C[C@@H]1CN(Cc2ccc(-c3cc4nccc(Oc5ccc(NC(=O)NC6CC6)cc5F)c4s3)nc2)C[C@H](C)N1 [Compound 530, 1-cyclopropyl-3-(4-(2-(5-(((3S,5R)-3,5-dimethylpiperazin-1-yl)methyl)pyridin-2-yl)thieno[3,2-b]-pyridin-7-yloxy)-3-fluorophenyl)urea]
C[C@@H]1CN(Cc2ccc(-c3cc4nccc(Oc5ccc(NC(=O)NC6CC6)cc5F)c4s3)nc2)C[C@H](C)N1C(=O)CO [Compound 531, 1-cyclopropyl-3-(3-fluoro-4-(2-(5-(((3S,5R)-4-(2-hydroxyacetyl)-3,5-dimethylpiperazin-1-yl)methyl)pyyridin-2-yl)thieno[3,2-b]pyridin-7-yloxy)phenyl)urea]
O=C(Nc1ccc(Oc2ccnc3cc(-c4ccc(CN5CCOCCOCCOCC5)cn4)sc23)c(F)c1)NC1CC1 [Compound 532]
O=C(Nc1ccc(Oc2ccnc3cc(-c4ccc(CN5CCOCCOCCOCCOCC5)cn4)sc23)c(F)c1)NC1CC1 [Compound 533]
O=C(Nc1ccc(Oc2ccnc3cc(-c4ccc(CN5CCN(C(=O)CCCC[C@H]6SC[C@H]7NC(=O)N[C@H]76)CC5)cn4)sc23)c(F)c1)NC1CC1 [Compound 535]
O=C(Nc1ccc(Oc2ccnc3cc(-c4ccc(CN5CCN(C(=O)[C@@H](O)CO)CC5)cn4)sc23)c(F)c1)NC1CC1 [Compound 536]
CC(C)(CO)C(=O)N1CCN(Cc2ccc(-c3cc4nccc(Oc5ccc(NC(=O)NC6CC6)cc5F)c4s3)nc2)CC1 [Compound 537]
CN(C)CC(=O)N1CCN(Cc2ccc(-c3cc4nccc(Oc5ccc(NC(=O)NC6CC6)cc5F)c4s3)nc2)CC1 [Compound 538]
CN1CCC(C(=O)N2CCN(Cc3ccc(-c4cc5nccc(Oc6ccc(NC(=O)NC7CC7)cc6F)c5s4)nc3)CC2)CC1 [Compound 539]
O=C(Nc1ccc(Oc2ccnc3cc(-c4ccc(CN5CCN(C(=O)[C@H](O)CO)CC5)cn4)sc23)c(F)c1)NC1CC1 [Compound 540]
O=C(Nc1ccc(Oc2ccnc3cc(-c4ccc(CN5CCN(C(=O)[C@H]6CCC(=O)O6)CC5)cn4)sc23)c(F)c1)NC1CC1 [Compound 543]
O=C(O)CCCCCCC(=O)N1CCN(Cc2ccc(-c3cc4nccc(Oc5ccc(NC(=O)NC6CC6)cc5F)c4s3)nc2)CC1 [Compound 544]
O=C(Nc1ccc(Oc2ccnc3cc(-c4ccc(CN5CCN(C(=O)CCO)CC5)cn4)sc23)c(F)c1)NC1CC1 [Compound 545]
O=C(O)CC[C@@H](O)C(=O)N1CCN(Cc2ccc(-c3cc4nccc(Oc5ccc(NC(=O)NC6CC6)cc5F)c4s3)nc2)CC1 [Compound 546]
CN(C)C/C=C/C(=O)N1CCN(Cc2ccc(-c3cc4nccc(Oc5ccc(NC(=O)NC6CC6)cc5F)c4s3)nc2)CC1 [Compound 547, (E)-1-cyclopropyl-3-(4-(2-(5-((4-(4-(dimethylamino)but-2-enoyl)piperazin-1-yl)methyl)pyridin-2-yl)thieno[3,2-b]pyridin-7-yloxy)-3-fluorophenyl)urea]
CN(C)CCNCC(=O)N1CCN(Cc2ccc(-c3cc4nccc(Oc5ccc(NC(=O)NC6CC6)cc5F)c4s3)nc2)CC1 [Compound 549, 1-cyclopropyl-3-(4-(2-(5-((4-(2-(2-(dimethylamino)ethylamino)acetyl)piperazin-1-yl)methyl)pyridin-2-yl)thieno[3,2-b]pyridin-7-yloxy)-3-fluorophenyl)urea]
O=C(Nc1ccc(Oc2ccnc3cc(-c4ccc(C(=O)N5CCNCC5)cn4)sc23)c(F)c1)NC1CC1 [Compound 550]
CCNC(=O)N1CCN(Cc2ccc(-c3cc4nccc(Oc5ccc(NC(=O)NC6CC6)cc5F)c4s3)nc2)CC1 [Compound 551]
CNC(=O)N1CCN(Cc2ccc(-c3cc4nccc(Oc5ccc(NC(=O)NC6CC6)cc5F)c4s3)nc2)CC1 [Compound 552]
CCNC(=O)N1CCN(Cc2ccc(-c3cc4nccc(Oc5ccc(NC(=O)NC6CC6)cc5F)c4s3)nc2)C[C@@H]1C [Compound 556]
CCNC(=O)N1CCN(C(=O)c2ccc(-c3cc4nccc(Oc5ccc(NC(=O)NC6CC6)cc5F)c4s3)nc2)CC1 [Compound 557]
O=C(O)CNC(=O)N1CCN(Cc2ccc(-c3cc4nccc(Oc5ccc(NC(=O)NC6CC6)cc5F)c4s3)nc2)CC1 [Compound 558]
O=C(O)CCNC(=O)N1CCN(Cc2ccc(-c3cc4nccc(Oc5ccc(NC(=O)NC6CC6)cc5F)c4s3)nc2)CC1 [Compound 559]
CC(O)CN1CCN(Cc2ccc(-c3cc4nccc(Oc5ccc(NC(=O)NC6CC6)cc5F)c4s3)nc2)CC1 (stereo not shown) [Compound 562]
CC(C)(O)CN1CCN(Cc2ccc(-c3cc4nccc(Oc5ccc(NC(=O)NC6CC6)cc5F)c4s3)nc2)CC1 [Compound 570]
C[C@H](CN1CCN(Cc2ccc(-c3cc4nccc(Oc5ccc(NC(=O)NC6CC6)cc5F)c4s3)nc2)CC1)C(=O)O [Compound 574]
CC(C)(CN1CCN(Cc2ccc(-c3cc4nccc(Oc5ccc(NC(=O)NC6CC6)cc5F)c4s3)nc2)CC1)C(=O)O [Compound 575]
CC(C)(CN1CCN(C(=O)c2ccc(-c3cc4nccc(Oc5ccc(NC(=O)NC6CC6)cc5F)c4s3)nc2)CC1)C(=O)O [Compound 576]
COC(=O)CCN1CCN(C(=O)c2ccc(-c3cc4nccc(Oc5ccc(NC(=O)NC6CC6)cc5F)c4s3)nc2)CC1 [Compound 580]
O=C(Nc1ccc(Oc2ccnc3cc(-c4ccc(C(=O)N5CCN(CCO)CC5)cn4)sc23)c(F)c1)NC1CC1 [Compound 581, 1-cyclopropyl-3-(3-fluoro-4-(2-(5-(4-(2-hydroxyethyl)piperazine-1-carbonyl)pyridin-2-yl)thieno[3,2-b]pyridin-7-yloxy)phenyl)urea]
C[C@H]1CN(Cc2ccc(-c3cc4nccc(Oc5ccc(NC(=O)NC6CC6)cc5F)c4s3)nc2)CCN1CCO [Compound 582, (S)-1-cyclopropyl-3-(3-fluoro-4-(2-(5-((4-(2-hydroxyethyl)-3-methylpiperazin-1-yl)methyl)pyridin-2-yl)thieno[3,2-b]pyridin-7-yloxy)phenyl)urea]
C[C@@H]1CN(Cc2ccc(-c3cc4nccc(Oc5ccc(NC(=O)NC6CC6)cc5F)c4s3)nc2)C[C@H](C)N1CCO [Compound 583]

pIC50, ≤ 6.60:
CC1=C(/C=C/C(C)=C/C=C/C(C)=C/C(=O)N2CCN(Cc3ccc(-c4cc5nccc(Oc6ccc(NC(=O)NC7CC7)cc6F)c5s4)nc3)CC2)C(C)(C)CCC1 [Compound 548, 1-cyclopropyl-3-(4-(2-(5-((4-((2E,4E,6E,8E)-3,7-dimethyl-9-(2,6,6-trimethylcyclohex-1-enyl)nona-2,4,6,8-tetraenoyl)piperazin-1-yl)methyl)pyridin-2-yl)thieno[3,2-b]pyridin-7-yloxy)-3-fluorophenyl)urea]
